Results taken from patent publication US6339042B1, “Herbicidal N-cyclohexadienyl heteroaryloxyacetamides” (American Cyanamid Co., priority 1999, dated 2002).

Assays:
Settings in all cases: three weeks after treatment
[1] = tested on: Hordeum vulgare; experiment: Post-emergence herbicidal evaluation, HORVW
[2] = tested on: Lolium perenne; experiment: Pre-emergence herbicidal evaluation, LOLPE; assay type: in vivo
Description: (§1) The treated pots are then placed on greenhouse benches, watered and cared for in accordance with conventional greenhouse procedures.

[3] = tested on: Zea mays; experiment: Pre-emergence herbicidal evaluation, ZEAMX; assay type: in vivo
Description: as §1

[4] = tested on: Hordeum vulgare; experiment: Pre-emergence herbicidal evaluation, HORVW; assay type: in vivo
Description: as §1

[5] = tested on: Glycine max; experiment: Pre-emergence herbicidal evaluation, GLXMA; assay type: in vivo
Description: as §1

[6] = tested on: Echinochloa crus-galli; experiment: Pre-emergence herbicidal evaluation, ECHCG; assay type: in vivo
Description: as §1

[7] = tested on: Apera spica venti; experiment: Pre-emergence herbicidal evaluation, APESV; assay type: in vivo
Description: as §1

[8] = tested on: Amaranthus tuberculatus; experiment: Post-emergence herbicidal evaluation, AMATA; assay type: in vivo
[9] = tested on: Setaria viridis; experiment: Post-emergence herbicidal evaluation, SETVI
[10] = tested on: Alopecurus myosuroides; experiment: Pre-emergence herbicidal evaluation, ALOMY; assay type: in vivo
Description: as §1

[11] = tested on: Triticum aestivum; experiment: Post-emergence herbicidal evaluation, TRZAW
[12] = tested on: Galium aparine; experiment: Post-emergence herbicidal evaluation, GALAP
[13] = tested on: Glycine max; experiment: Post-emergence herbicidal evaluation, GLXMA
[14] = tested on: Setaria viridis; experiment: Pre-emergence herbicidal evaluation, SETVI; assay type: in vivo
Description: as §1

[15] = tested on: Echinochloa crus-galli; experiment: Post-emergence herbicidal evaluation, ECHCG
[16] = tested on: Apera spica venti; experiment: Post-emergence herbicidal evaluation, APESV
[17] = tested on: Alopecurus myosuroides; experiment: Post-emergence herbicidal evaluation, ALOMY
[18] = tested on: Oryza sativum; experiment: Pre-emergence herbicidal evaluation, ORYSA; assay type: in vivo
Description: as §1

[19] = tested on: Triticum aestivum; experiment: Pre-emergence herbicidal evaluation, TRZAW; assay type: in vivo
Description: as §1

[20] = tested on: Zea mays; experiment: Post-emergence herbicidal evaluation, ZEAMX
[21] = tested on: Lolium perenne; experiment: Post-emergence herbicidal evaluation, LOLPE
[22] = tested on: Amaranthus tuberculatus; experiment: Pre-emergence herbicidal evaluation, AMATA; assay type: in vivo
Description: as §1

[23] = tested on: Oryza sativum; experiment: Post-emergence herbicidal evaluation, ORYSA

CCc1nnc(OCC(=O)N(C)C2=CC(C)(C)CC(C)=C2)s1 [Example 5]
phytotoxicity rating HORVW ([1]; 0.100 kg/ha): 0 (0 - No effect) | phytotoxicity rating HORVW ([1]; 0.200 kg/ha): 0 (0 - No effect) | phytotoxicity rating HORVW ([1]; 0.400 kg/ha): 0 (0 - No effect) | phytotoxicity rating LOLPE ([2]; 0.100 kg/ha): 5 (5 - Definite injury) | phytotoxicity rating LOLPE ([2]; 0.200 kg/ha): 5 (5 - Definite injury) | phytotoxicity rating LOLPE ([2]; 0.400 kg/ha): 5 (5 - Definite injury) | phytotoxicity rating LOLPE ([2]; 0.800 kg/ha): 7 (7 - Good herbicidal effect) | phytotoxicity rating ZEAMX ([3]; 0.100 kg/ha): 0 (0 - No effect) | phytotoxicity rating ZEAMX ([3]; 0.200 kg/ha): 0 (0 - No effect) | phytotoxicity rating ZEAMX ([3]; 0.400 kg/ha): 0 (0 - No effect) | phytotoxicity rating ZEAMX ([3]; 0.800 kg/ha): 6 (6 - Herbicidal effect) | phytotoxicity rating HORVW ([4]; 0.100 kg/ha): 0 (0 - No effect) | phytotoxicity rating HORVW ([4]; 0.200 kg/ha): 2 (2 - Slight effect) | phytotoxicity rating HORVW ([4]; 0.400 kg/ha): 3 (3 - Moderate effect) | phytotoxicity rating HORVW ([4]; 0.800 kg/ha): 4 (4 - Injury) | phytotoxicity rating GLXMA ([5]; 0.100 kg/ha): 0 (0 - No effect) | phytotoxicity rating GLXMA ([5]; 0.200 kg/ha): 0 (0 - No effect) | phytotoxicity rating GLXMA ([5]; 0.400 kg/ha): 0 (0 - No effect) | phytotoxicity rating GLXMA ([5]; 0.800 kg/ha): 1 (1 - Trace effect) | phytotoxicity rating ECHCG ([6]; 0.100 kg/ha): 2 (2 - Slight effect) | phytotoxicity rating ECHCG ([6]; 0.200 kg/ha): 7 (7 - Good herbicidal effect) | phytotoxicity rating ECHCG ([6]; 0.400 kg/ha): 8 (8 - Approaching complete kill) | phytotoxicity rating ECHCG ([6]; 0.800 kg/ha): 9 (9 - Complete kill) | phytotoxicity rating APESV ([7]; 0.400 kg/ha): 3 (3 - Moderate effect) | phytotoxicity rating APESV ([7]; 0.800 kg/ha): 7 (7 - Good herbicidal effect) | phytotoxicity rating AMATA ([8]; 0.100 kg/ha): 0 (0 - No effect) | phytotoxicity rating AMATA ([8]; 0.200 kg/ha): 0 (0 - No effect) | phytotoxicity rating AMATA ([8]; 0.400 kg/ha): 3 (3 - Moderate effect) | phytotoxicity rating SETVI ([9]; 0.100 kg/ha): 0 (0 - No effect) | phytotoxicity rating SETVI ([9]; 0.200 kg/ha): 0 (0 - No effect) | phytotoxicity rating SETVI ([9]; 0.400 kg/ha): 0 (0 - No effect) | phytotoxicity rating ALOMY ([10]; 0.100 kg/ha): 3 (3 - Moderate effect) | phytotoxicity rating ALOMY ([10]; 0.200 kg/ha): 8 (8 - Approaching complete kill) | phytotoxicity rating ALOMY ([10]; 0.400 kg/ha): 9 (9 - Complete kill) | phytotoxicity rating ALOMY ([10]; 0.800 kg/ha): 9 (9 - Complete kill) | phytotoxicity rating TRZAW ([11]; 0.100 kg/ha): 0 (0 - No effect) | phytotoxicity rating TRZAW ([11]; 0.200 kg/ha): 0 (0 - No effect) | phytotoxicity rating TRZAW ([11]; 0.400 kg/ha): 1 (1 - Trace effect) | phytotoxicity rating GALAP ([12]; 0.100 kg/ha): 0 (0 - No effect) | phytotoxicity rating GALAP ([12]; 0.200 kg/ha): 0 (0 - No effect) | phytotoxicity rating GALAP ([12]; 0.400 kg/ha): 4 (4 - Injury) | phytotoxicity rating GLXMA ([13]; 0.100 kg/ha): 5 (5 - Definite injury) | phytotoxicity rating GLXMA ([13]; 0.200 kg/ha): 5 (5 - Definite injury) | phytotoxicity rating GLXMA ([13]; 0.400 kg/ha): 5 (5 - Definite injury) | phytotoxicity rating SETVI ([14]; 0.100 kg/ha): 0 (0 - No effect) | phytotoxicity rating SETVI ([14]; 0.200 kg/ha): 3 (3 - Moderate effect) | phytotoxicity rating SETVI ([14]; 0.400 kg/ha): 7 (7 - Good herbicidal effect) | phytotoxicity rating SETVI ([14]; 0.800 kg/ha): 9 (9 - Complete kill) | phytotoxicity rating ECHCG ([15]; 0.100 kg/ha): 0 (0 - No effect) | phytotoxicity rating ECHCG ([15]; 0.200 kg/ha): 0 (0 - No effect) | phytotoxicity rating ECHCG ([15]; 0.400 kg/ha): 0 (0 - No effect) | phytotoxicity rating APESV ([16]; 0.100 kg/ha): 0 (0 - No effect) | phytotoxicity rating APESV ([16]; 0.200 kg/ha): 0 (0 - No effect) | phytotoxicity rating APESV ([16]; 0.400 kg/ha): 1 (1 - Trace effect) | phytotoxicity rating ALOMY ([17]; 0.100 kg/ha): 0 (0 - No effect) | phytotoxicity rating ALOMY ([17]; 0.200 kg/ha): 2 (2 - Slight effect) | phytotoxicity rating ALOMY ([17]; 0.400 kg/ha): 7 (7 - Good herbicidal effect) | phytotoxicity rating ORYSA ([18]; 0.100 kg/ha): 1 (1 - Trace effect) | phytotoxicity rating ORYSA ([18]; 0.200 kg/ha): 2 (2 - Slight effect) | phytotoxicity rating ORYSA ([18]; 0.400 kg/ha): 4 (4 - Injury) | phytotoxicity rating ORYSA ([18]; 0.800 kg/ha): 5 (5 - Definite injury) | phytotoxicity rating TRZAW ([19]; 0.100 kg/ha): 0 (0 - No effect) | phytotoxicity rating TRZAW ([19]; 0.200 kg/ha): 0 (0 - No effect) | phytotoxicity rating TRZAW ([19]; 0.400 kg/ha): 1 (1 - Trace effect) | phytotoxicity rating TRZAW ([19]; 0.800 kg/ha): 1 (1 - Trace effect) | phytotoxicity rating ZEAMX ([20]; 0.100 kg/ha): 0 (0 - No effect) | phytotoxicity rating ZEAMX ([20]; 0.200 kg/ha): 0 (0 - No effect) | phytotoxicity rating ZEAMX ([20]; 0.400 kg/ha): 0 (0 - No effect) | phytotoxicity rating LOLPE ([21]; 0.100 kg/ha): 0 (0 - No effect) | phytotoxicity rating LOLPE ([21]; 0.200 kg/ha): 1 (1 - Trace effect) | phytotoxicity rating LOLPE ([21]; 0.400 kg/ha): 4 (4 - Injury) | phytotoxicity rating AMATA ([22]; 0.100 kg/ha): 0 (0 - No effect) | phytotoxicity rating AMATA ([22]; 0.200 kg/ha): 0 (0 - No effect) | phytotoxicity rating AMATA ([22]; 0.400 kg/ha): 1 (1 - Trace effect) | phytotoxicity rating AMATA ([22]; 0.800 kg/ha): 3 (3 - Moderate effect) | phytotoxicity rating ORYSA ([23]; 0.100 kg/ha): 0 (0 - No effect) | phytotoxicity rating ORYSA ([23]; 0.200 kg/ha): 1 (1 - Trace effect) | phytotoxicity rating ORYSA ([23]; 0.400 kg/ha): 1 (1 - Trace effect)
